We go through 14 compounds from patent publication US6984754B1, “Aliphatic amino carboxylic and amino phosphonic acids amino nitriles and amino tetrazoles as cellular rescue agents” (University of Saskatchewan Technologies Inc., priority 1998, dated 2006).

The experiment has as its system cerebellar granule cells (CGC). In words: Antiapoptotic capacity (rescue) in cerebellar granule cells induced into apoptosis by cytosine arabinoside (CGC assay). It counts as cell-based, Wistar rat. From the text:
In Vitro Protocol for Assessing the Antiapoptotic Capacity of Various Compounds in Cerebellar Granule Cells
Cultures of cerebellar granule cells (CGC) can be induced into apoptosis by the addition of a high concentration of cytosine arabinoside (AraC). It has been shown that this is a p53 dependent apoptosis. We have measured the antiapoptotic effect of some amino acids, amino esters, amino phosphonic acids, amino nitriles and amino tetrazoles using this system.
Cultures of CGC were obtained from 6-8 day old Wistar rat pups. Cultures were grown on glass in 35 mm petri dishes for three days and then used for experiments. Aliquots (20 ul) of drug solutions (AraC, anti-apoptotic drugs, drug vehicles) were added to the medium of the culture. 24 Hours later the cultures were fixed with FAM, and stained with bis-benzamide. Normal and apoptotic nuclei were counted to a total of 90-120 cells per culture.

Where [1] appears, read: compound 10^−6 M, AraC 300 uM-induced apoptosis, 24 hours.
Where [2] appears, read: compound 10^−9 M, AraC 300 uM-induced apoptosis, 24 hours.
The mark [3] stands for this setting: compound 10^−12 M, AraC 300 uM-induced apoptosis, 24 hours.
Where [4] appears, read: overall over 10^−6, 10^−9, 10^−12 M.

Counter-ions that a name gives are not always drawn.

Regarding `CCCCCC(C)NCCc1nnn[nH]1` (stereo in doubt) [R-2-Heptyl (Amino Tetrazoles), (R)-2-(2-Heptylamino)ethane-5-tetrazole hydrochloride], the “Rescue by Amino Tetrazoles in the CGC Assay, 10^−6 M” value under setting [1] is given as “R”. Further, the “Rescue by Amino Tetrazoles in the CGC Assay, 10^−9 M” value under setting [2] is reported as “R”. Besides, under setting [3], the “Rescue by Amino Tetrazoles in the CGC Assay, 10^−12 M” value was “R”. Besides, under setting [4], the “Rescue by Amino Tetrazoles in the CGC Assay, Rescue (overall yes/no)” value was “yes”.

With `CCCCCC(C)NCCC(=O)O` (stereo in doubt) [R-2-Heptyl (B-Alanines), (R)-3-(2-Heptylamino)propionic acid hydrochloride], the “Rescue by Amino Acids and Esters in the CGC Assay, 10^−9 M” value under setting [2] is reported as “R”. For the same compound, under setting [3], the “Rescue by Amino Acids and Esters in the CGC Assay, 10^−12 M” value was “R”. Further, under setting [4], the “Rescue by Amino Acids and Esters in the CGC Assay, Rescue (overall yes/no)” value is “yes”.

With `CCCCCC(C)NCC(=O)O` (stereo in doubt) [R-2-Heptyl (Glycines), (R)-2-(2-Heptylamino)acetic acid hydrochloride], the “Rescue by Amino Acids and Esters in the CGC Assay, Rescue (overall yes/no)” value under setting [4] is recorded as “no”.

In the case of `CCCCCC(C)NCCC#N` (stereo in doubt) [R-2-Heptyl (Propionitriles), (R)-3-(2-Heptylamino)propionitrile hydrochloride], the “Rescue by Amino Nitriles in the CGC Assay, 10^−9 M” value (“Rescue by Amino Nitriles … 10^−9 M” for short) under setting [2] was “R”. In addition, under setting [3], the “Rescue by Amino Nitriles in the CGC Assay, 10^−12 M” value was “R”. Further, under setting [4], the “Rescue by Amino Nitriles in the CGC Assay, Rescue (overall yes/no)” value (shortened to “Rescue by Amino Nitriles … (overall yes/no)”) was “yes”.

For `CCCCCC(C)N(C)CCC#N` (stereo in doubt) [R-2-Heptyl-N-methyl (Propionitriles), (R)-3-(2-Heptylmethylamino)propionitrile hydrochloride], under setting [2], the “Rescue by Amino Nitriles … 10^−9 M” value is given as “R”. Also, under setting [4], the “Rescue by Amino Nitriles … (overall yes/no)” value is “yes”.

Turning to `CCCCCC(C)NCC#N` (stereo in doubt) [R-2-heptyl (Acetonitriles), (R)-2-(2-Heptylamino)acetonitrile hydrochloride], the “Rescue by Amino Nitriles … (overall yes/no)” value under setting [4] was “no”.

`CCCCCCNCC#N.Cl` [1-Hexyl (Acetonitriles), 2-(1-Hexylamino)acetonitrile hydrochloride]: the “Rescue by Amino Nitriles … 10^−9 M” value under setting [2] is “R”. Under setting [3], the “Rescue by Amino Nitriles in the CGC Assay, 10^−12 M” value is on record as “R”. For the same compound, the “Rescue by Amino Nitriles … (overall yes/no)” value under setting [4] is recorded as “yes”.

As for `CCCCCCNCCP(=O)(O)O.Cl` [1-Hexyl (Amino Phosphonic Acids), 2-(1-Hexylamino)ethanephosphonic acid hydrochloride], the “Rescue by Amino Phosphonic Acids in the CGC Assay, Rescue (overall yes/no)” value under setting [4] was “no”.

As to `CCCCCCNCCC(=O)OC` [1-Hexyl (B-Alaninates), Methyl 3-(1-hexylamino)propionate hydrochloride], the “Rescue by Amino Acids and Esters in the CGC Assay, 10^−9 M” value under setting [2] was “R”. The “Rescue by Amino Acids and Esters in the CGC Assay, 10^−12 M” value under setting [3] is reported as “R”. Besides, under setting [4], the “Rescue by Amino Acids and Esters in the CGC Assay, Rescue (overall yes/no)” value is reported as “yes”.

For `CCCCCCNCC(=O)O.Cl` [1-Hexyl (Glycines), 2-(1-Hexylamino)acetic acid hydrochloride], the “Rescue by Amino Acids and Esters in the CGC Assay, 10^−9 M” value under setting [2] is “R”. Also, the “Rescue by Amino Acids and Esters in the CGC Assay, Rescue (overall yes/no)” value under setting [4] is “yes”.

As for `COC(=O)CCNC(C)C.Cl` [2-Propyl (B-Alaninates), Methyl 3-(2-propylamino)propionate hydrochloride], the “Rescue by Amino Acids and Esters in the CGC Assay, Rescue (overall yes/no)” value under setting [4] was “no”.

For the compound `CC(C)NCC(=O)O.Cl` [2-Propyl (Glycines), 2-(2-Propylamino)acetic acid hydrochloride], the “Rescue by Amino Acids and Esters in the CGC Assay, 10^−6 M” value under setting [1] is “R”. Moreover, the “Rescue by Amino Acids and Esters in the CGC Assay, Rescue (overall yes/no)” value under setting [4] is recorded as “yes”.

In the case of `CC(C)NCCC#N.Cl` [2-Propyl (Propionitriles), 3-(2-Propylamino)propionitrile hydrochloride], the “Rescue by Amino Nitriles … (overall yes/no)” value under setting [4] is “no”.

Take `CC(C)N(C)CCC(=O)O` [2-Propyl-N-methyl (B-Alanines), 3-(2-Propylmethylamino)propionic acid]: under setting [1], the “Rescue by Amino Acids and Esters in the CGC Assay, 10^−6 M” value is given as “R”. For the same compound, the “Rescue by Amino Acids and Esters in the CGC Assay, 10^−9 M” value under setting [2] is “R”. In addition, the “Rescue by Amino Acids and Esters in the CGC Assay, Rescue (overall yes/no)” value under setting [4] was “yes”.
